Source: BigSolDB 2.1

Work on `O=C(O)c1cc([N+](=O)[O-])cc([N+](=O)[O-])c1` yielded a solubility (mole fraction) (in acetonitrile, 283.15 K) of 0.00815, a solubility (mole fraction) (in acetonitrile, 288.15 K) of 0.00958 and a solubility (mole fraction) (in acetonitrile, 293.15 K) of 0.011. For the same compound, the solubility (mole fraction) (in acetonitrile, 298.15 K) was 0.0129, the solubility (mole fraction) (in acetonitrile, 303.15 K) was 0.0148 and the solubility (mole fraction) (in acetonitrile, 308.15 K) was 0.0162. The solubility (mole fraction) (in acetonitrile, 313.15 K) was 0.019, the solubility (mole fraction) (in acetonitrile, 318.15 K) was 0.0218 and the solubility (mole fraction) (in acetonitrile, 323.15 K) was 0.0236. It also gave a solubility (mole fraction) (in ethanol, 283.15 K) of 0.0264, a solubility (mole fraction) (in ethanol, 288.15 K) of 0.0306 and a solubility (mole fraction) (in ethanol, 293.15 K) of 0.0346. For the same compound, the solubility (mole fraction) (in ethanol, 298.15 K) was 0.0396, the solubility (mole fraction) (in ethanol, 303.15 K) was 0.0456 and the solubility (mole fraction) (in ethanol, 308.15 K) was 0.0524. For the same compound, the solubility (mole fraction) (in ethanol, 313.15 K) was 0.0593, the solubility (mole fraction) (in ethanol, 318.15 K) was 0.07 and the solubility (mole fraction) (in ethanol, 323.15 K) was 0.078. For the same compound, the solubility (mole fraction) (in ethyl acetate, 283.15 K) was 0.0349, the solubility (mole fraction) (in ethyl acetate, 288.15 K) was 0.0373 and the solubility (mole fraction) (in ethyl acetate, 293.15 K) was 0.0399. The solubility (mole fraction) (in ethyl acetate, 298.15 K) was 0.0426, the solubility (mole fraction) (in ethyl acetate, 303.15 K) was 0.0458 and the solubility (mole fraction) (in ethyl acetate, 308.15 K) was 0.0495. For the same compound, the solubility (mole fraction) (in ethyl acetate, 313.15 K) was 0.0533, the solubility (mole fraction) (in ethyl acetate, 318.15 K) was 0.0574 and the solubility (mole fraction) (in ethyl acetate, 323.15 K) was 0.0627. It also gave a solubility (mole fraction) (in isobutanol, 283.15 K) of 0.00648, a solubility (mole fraction) (in isobutanol, 288.15 K) of 0.00862 and a solubility (mole fraction) (in isobutanol, 293.15 K) of 0.0129. It also gave a solubility (mole fraction) (in isobutanol, 298.15 K) of 0.0171, a solubility (mole fraction) (in isobutanol, 303.15 K) of 0.0223 and a solubility (mole fraction) (in isobutanol, 308.15 K) of 0.0265. For the same compound, the solubility (mole fraction) (in isobutanol, 313.15 K) was 0.031, the solubility (mole fraction) (in isobutanol, 318.15 K) was 0.0376 and the solubility (mole fraction) (in isobutanol, 323.15 K) was 0.0466. For the same compound, the solubility (mole fraction) (in isopropanol, 283.15 K) was 0.014, the solubility (mole fraction) (in isopropanol, 288.15 K) was 0.0167 and the solubility (mole fraction) (in isopropanol, 293.15 K) was 0.0194. It also gave a solubility (mole fraction) (in isopropanol, 298.15 K) of 0.0255, a solubility (mole fraction) (in isopropanol, 303.15 K) of 0.0315 and a solubility (mole fraction) (in isopropanol, 308.15 K) of 0.0381. It also gave a solubility (mole fraction) (in isopropanol, 313.15 K) of 0.0459, a solubility (mole fraction) (in isopropanol, 318.15 K) of 0.0548 and a solubility (mole fraction) (in isopropanol, 323.15 K) of 0.0661. The solubility (mole fraction) (in methanol, 283.15 K) was 0.0321, the solubility (mole fraction) (in methanol, 288.15 K) was 0.0399 and the solubility (mole fraction) (in methanol, 293.15 K) was 0.0454. The solubility (mole fraction) (in methanol, 298.15 K) was 0.0502, the solubility (mole fraction) (in methanol, 303.15 K) was 0.059 and the solubility (mole fraction) (in methanol, 308.15 K) was 0.0669. The solubility (mole fraction) (in methanol, 313.15 K) was 0.0767, the solubility (mole fraction) (in methanol, 318.15 K) was 0.0843 and the solubility (mole fraction) (in methanol, 323.15 K) was 0.0943. The solubility (mole fraction) (in methyl acetate, 283.15 K) was 0.0378, the solubility (mole fraction) (in methyl acetate, 288.15 K) was 0.0413 and the solubility (mole fraction) (in methyl acetate, 293.15 K) was 0.0456. It also gave a solubility (mole fraction) (in methyl acetate, 298.15 K) of 0.0498, a solubility (mole fraction) (in methyl acetate, 303.15 K) of 0.054 and a solubility (mole fraction) (in methyl acetate, 308.15 K) of 0.0582. For the same compound, the solubility (mole fraction) (in methyl acetate, 313.15 K) was 0.0623, the solubility (mole fraction) (in methyl acetate, 318.15 K) was 0.0664 and the solubility (mole fraction) (in methyl acetate, 323.15 K) was 0.0713. It also gave a solubility (mole fraction) (in n-butanol, 283.15 K) of 0.0138, a solubility (mole fraction) (in n-butanol, 288.15 K) of 0.0163 and a solubility (mole fraction) (in n-butanol, 293.15 K) of 0.0214. For the same compound, the solubility (mole fraction) (in n-butanol, 298.15 K) was 0.0273, the solubility (mole fraction) (in n-butanol, 303.15 K) was 0.0329 and the solubility (mole fraction) (in n-butanol, 308.15 K) was 0.0386. For the same compound, the solubility (mole fraction) (in n-butanol, 313.15 K) was 0.0458, the solubility (mole fraction) (in n-butanol, 318.15 K) was 0.0537 and the solubility (mole fraction) (in n-butanol, 323.15 K) was 0.0622. For the same compound, the solubility (mole fraction) (in n-butyl acetate, 283.15 K) was 0.0257, the solubility (mole fraction) (in n-butyl acetate, 288.15 K) was 0.0262 and the solubility (mole fraction) (in n-butyl acetate, 293.15 K) was 0.0281. For the same compound, the solubility (mole fraction) (in n-butyl acetate, 298.15 K) was 0.0327, the solubility (mole fraction) (in n-butyl acetate, 303.15 K) was 0.0341 and the solubility (mole fraction) (in n-butyl acetate, 308.15 K) was 0.04. For the same compound, the solubility (mole fraction) (in n-butyl acetate, 313.15 K) was 0.0451, the solubility (mole fraction) (in n-butyl acetate, 318.15 K) was 0.0504 and the solubility (mole fraction) (in n-butyl acetate, 323.15 K) was 0.0562. It also gave a solubility (mole fraction) (in n-pentanol, 283.15 K) of 0.0153, a solubility (mole fraction) (in n-pentanol, 288.15 K) of 0.0173 and a solubility (mole fraction) (in n-pentanol, 293.15 K) of 0.0223. For the same compound, the solubility (mole fraction) (in n-pentanol, 298.15 K) was 0.0273, the solubility (mole fraction) (in n-pentanol, 303.15 K) was 0.0321 and the solubility (mole fraction) (in n-pentanol, 308.15 K) was 0.0379. The solubility (mole fraction) (in n-pentanol, 313.15 K) was 0.0456, the solubility (mole fraction) (in n-pentanol, 318.15 K) was 0.0531 and the solubility (mole fraction) (in n-pentanol, 323.15 K) was 0.0604. The solubility (mole fraction) (in n-propanol, 283.15 K) was 0.0173, the solubility (mole fraction) (in n-propanol, 288.15 K) was 0.019 and the solubility (mole fraction) (in n-propanol, 293.15 K) was 0.0224. It also gave a solubility (mole fraction) (in n-propanol, 298.15 K) of 0.0274, a solubility (mole fraction) (in n-propanol, 303.15 K) of 0.0332 and a solubility (mole fraction) (in n-propanol, 308.15 K) of 0.0397. It also gave a solubility (mole fraction) (in n-propanol, 313.15 K) of 0.0457, a solubility (mole fraction) (in n-propanol, 318.15 K) of 0.0549 and a solubility (mole fraction) (in n-propanol, 323.15 K) of 0.065. The solubility (mole fraction) (in n-propyl acetate, 283.15 K) was 0.0281, the solubility (mole fraction) (in n-propyl acetate, 288.15 K) was 0.0296 and the solubility (mole fraction) (in n-propyl acetate, 293.15 K) was 0.0318. It also gave a solubility (mole fraction) (in n-propyl acetate, 298.15 K) of 0.0354, a solubility (mole fraction) (in n-propyl acetate, 303.15 K) of 0.04 and a solubility (mole fraction) (in n-propyl acetate, 308.15 K) of 0.0443. The solubility (mole fraction) (in n-propyl acetate, 313.15 K) was 0.0494, the solubility (mole fraction) (in n-propyl acetate, 318.15 K) was 0.0548 and the solubility (mole fraction) (in n-propyl acetate, 323.15 K) was 0.0609. It also gave a solubility (mole fraction) (in sec-butanol, 283.15 K) of 0.0139, a solubility (mole fraction) (in sec-butanol, 288.15 K) of 0.0159 and a solubility (mole fraction) (in sec-butanol, 293.15 K) of 0.0201. The solubility (mole fraction) (in sec-butanol, 298.15 K) was 0.0263, the solubility (mole fraction) (in sec-butanol, 303.15 K) was 0.0324 and the solubility (mole fraction) (in sec-butanol, 308.15 K) was 0.0414. For the same compound, the solubility (mole fraction) (in sec-butanol, 313.15 K) was 0.0503, the solubility (mole fraction) (in sec-butanol, 318.15 K) was 0.0628 and the solubility (mole fraction) (in sec-butanol, 323.15 K) was 0.0777.
